From ChEMBL document CHEMBL2417495, “N-Methylanilide and N-methylbenzamide derivatives as phosphodiesterase 10A (PDE10A) inhibitors” (Bioorg Med Chem, 2013)

Tests used:
[1] = target: T1, cAMP and cAMP-inhibited cGMP 3',5'-cyclic phosphodiesterase 10A (Homo sapiens, UniProt Q9Y233); experiment: Inhibition of PDE10A (unknown origin) at 2 uM
[2] = target: T1, cAMP and cAMP-inhibited cGMP 3',5'-cyclic phosphodiesterase 10A; experiment: Inhibition of PDE10A (unknown origin)
[3] = target: cGMP-dependent 3',5'-cyclic phosphodiesterase (Homo sapiens) (UniProt O00408); experiment: Inhibition of PDE2 (unknown origin) at 2 uM
[4] = target: High affinity cGMP-specific 3',5'-cyclic phosphodiesterase 9A (Homo sapiens) (UniProt O76083); experiment: Inhibition of PDE9A (unknown origin) at 2 uM
Liver microsomes = experiment: Intrinsic clearance in human liver microsomes; type: ADME, Microsome
[5] = target: 3',5'-cyclic-AMP phosphodiesterase 4D (Homo sapiens) (UniProt Q08499); experiment: Inhibition of PDE4D (unknown origin) at 2 uM
[6] = target: cGMP-inhibited 3',5'-cyclic phosphodiesterase 3A (Homo sapiens) (UniProt Q14432); experiment: Inhibition of PDE3A (unknown origin) at 2 uM
Rattus norvegicus = species on record: Rattus norvegicus; experiment: Antipsychotic activity in rat assessed as inhibition of amphetamine-stimulated locomotor activity; type: functional
[7] = Ratio of drug uptake in brain to plasma in rat; type: ADME; conditions: read-out: BPR
Homo sapiens = species on record: Homo sapiens; experiment: Selectivity ratio of IC50 for PDE (unknown origin) to IC50 for PDE10A (unknown origin)
[8] = target: Voltage-gated inwardly rectifying potassium channel KCNH2 (Homo sapiens, UniProt Q12809); experiment: Inhibition of human ERG

Sequence of High affinity cGMP-specific 3',5'-cyclic phosphodiesterase 9A (Homo sapiens) (O76083 whole entry): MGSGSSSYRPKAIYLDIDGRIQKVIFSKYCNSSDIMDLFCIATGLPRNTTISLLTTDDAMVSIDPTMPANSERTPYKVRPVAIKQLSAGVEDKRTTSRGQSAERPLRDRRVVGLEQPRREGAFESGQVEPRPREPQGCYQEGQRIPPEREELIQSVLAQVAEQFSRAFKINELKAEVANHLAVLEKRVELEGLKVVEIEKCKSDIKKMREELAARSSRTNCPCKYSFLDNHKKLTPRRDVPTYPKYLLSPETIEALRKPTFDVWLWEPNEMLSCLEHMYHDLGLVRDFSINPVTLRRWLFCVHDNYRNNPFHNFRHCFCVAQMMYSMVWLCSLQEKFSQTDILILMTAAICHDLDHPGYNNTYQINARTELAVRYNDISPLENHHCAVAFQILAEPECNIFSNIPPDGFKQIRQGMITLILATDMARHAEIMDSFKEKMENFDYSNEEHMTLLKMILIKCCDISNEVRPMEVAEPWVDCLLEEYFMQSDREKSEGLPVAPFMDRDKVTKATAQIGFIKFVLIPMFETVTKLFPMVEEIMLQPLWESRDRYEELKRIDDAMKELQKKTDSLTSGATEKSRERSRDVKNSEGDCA
Sequence of cGMP-dependent 3',5'-cyclic phosphodiesterase (Homo sapiens) (O00408 whole entry): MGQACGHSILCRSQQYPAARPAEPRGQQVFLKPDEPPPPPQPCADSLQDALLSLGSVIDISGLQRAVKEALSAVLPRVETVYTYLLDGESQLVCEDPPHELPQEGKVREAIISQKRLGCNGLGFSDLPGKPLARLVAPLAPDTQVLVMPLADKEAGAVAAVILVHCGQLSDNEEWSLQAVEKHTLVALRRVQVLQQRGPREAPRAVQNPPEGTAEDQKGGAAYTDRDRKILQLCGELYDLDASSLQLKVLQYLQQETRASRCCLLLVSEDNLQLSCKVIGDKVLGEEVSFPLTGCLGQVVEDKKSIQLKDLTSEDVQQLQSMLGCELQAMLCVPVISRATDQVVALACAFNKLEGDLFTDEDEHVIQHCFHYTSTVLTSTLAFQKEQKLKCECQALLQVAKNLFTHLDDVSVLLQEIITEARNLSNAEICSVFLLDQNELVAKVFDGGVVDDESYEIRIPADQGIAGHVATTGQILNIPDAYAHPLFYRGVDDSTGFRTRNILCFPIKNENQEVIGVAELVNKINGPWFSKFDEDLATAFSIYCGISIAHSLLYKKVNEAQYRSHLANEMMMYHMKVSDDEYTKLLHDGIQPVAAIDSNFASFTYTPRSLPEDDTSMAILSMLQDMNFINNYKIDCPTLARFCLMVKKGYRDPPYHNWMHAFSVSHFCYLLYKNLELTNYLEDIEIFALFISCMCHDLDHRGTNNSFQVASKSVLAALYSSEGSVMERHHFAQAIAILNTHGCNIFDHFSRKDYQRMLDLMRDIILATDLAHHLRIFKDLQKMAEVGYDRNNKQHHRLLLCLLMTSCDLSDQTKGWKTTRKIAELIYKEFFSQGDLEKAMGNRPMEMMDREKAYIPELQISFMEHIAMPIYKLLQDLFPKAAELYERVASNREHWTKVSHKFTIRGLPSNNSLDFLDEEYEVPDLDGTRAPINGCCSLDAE
T1 sequence (Q9Y233 whole entry): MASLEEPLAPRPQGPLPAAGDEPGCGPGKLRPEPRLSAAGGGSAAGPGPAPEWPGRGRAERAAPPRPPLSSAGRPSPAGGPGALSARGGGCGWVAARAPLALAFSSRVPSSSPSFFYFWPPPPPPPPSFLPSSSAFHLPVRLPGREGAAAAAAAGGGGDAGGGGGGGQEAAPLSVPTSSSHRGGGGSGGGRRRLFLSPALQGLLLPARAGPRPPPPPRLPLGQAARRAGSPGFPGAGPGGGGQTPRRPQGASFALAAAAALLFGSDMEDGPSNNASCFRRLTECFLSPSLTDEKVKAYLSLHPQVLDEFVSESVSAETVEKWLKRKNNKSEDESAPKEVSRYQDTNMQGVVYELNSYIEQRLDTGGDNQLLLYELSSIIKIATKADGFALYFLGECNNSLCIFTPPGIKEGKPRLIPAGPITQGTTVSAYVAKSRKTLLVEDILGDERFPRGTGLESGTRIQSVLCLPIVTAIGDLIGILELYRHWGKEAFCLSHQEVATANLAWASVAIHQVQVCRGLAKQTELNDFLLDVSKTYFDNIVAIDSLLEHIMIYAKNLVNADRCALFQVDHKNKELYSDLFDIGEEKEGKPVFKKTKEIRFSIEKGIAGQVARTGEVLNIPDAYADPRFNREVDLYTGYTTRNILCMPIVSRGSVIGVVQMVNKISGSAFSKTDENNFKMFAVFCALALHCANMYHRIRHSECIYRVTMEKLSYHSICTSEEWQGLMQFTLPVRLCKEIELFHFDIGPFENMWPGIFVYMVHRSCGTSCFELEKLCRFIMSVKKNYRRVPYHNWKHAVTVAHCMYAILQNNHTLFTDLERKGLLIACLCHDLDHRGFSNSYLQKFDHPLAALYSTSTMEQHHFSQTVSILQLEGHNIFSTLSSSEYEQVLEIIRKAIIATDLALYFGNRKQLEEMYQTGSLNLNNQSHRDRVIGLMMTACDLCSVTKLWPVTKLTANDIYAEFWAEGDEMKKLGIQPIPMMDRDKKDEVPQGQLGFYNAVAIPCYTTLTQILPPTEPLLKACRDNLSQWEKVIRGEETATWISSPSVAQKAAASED
Sequence of cGMP-inhibited 3',5'-cyclic phosphodiesterase 3A (Homo sapiens) (Q14432 whole entry): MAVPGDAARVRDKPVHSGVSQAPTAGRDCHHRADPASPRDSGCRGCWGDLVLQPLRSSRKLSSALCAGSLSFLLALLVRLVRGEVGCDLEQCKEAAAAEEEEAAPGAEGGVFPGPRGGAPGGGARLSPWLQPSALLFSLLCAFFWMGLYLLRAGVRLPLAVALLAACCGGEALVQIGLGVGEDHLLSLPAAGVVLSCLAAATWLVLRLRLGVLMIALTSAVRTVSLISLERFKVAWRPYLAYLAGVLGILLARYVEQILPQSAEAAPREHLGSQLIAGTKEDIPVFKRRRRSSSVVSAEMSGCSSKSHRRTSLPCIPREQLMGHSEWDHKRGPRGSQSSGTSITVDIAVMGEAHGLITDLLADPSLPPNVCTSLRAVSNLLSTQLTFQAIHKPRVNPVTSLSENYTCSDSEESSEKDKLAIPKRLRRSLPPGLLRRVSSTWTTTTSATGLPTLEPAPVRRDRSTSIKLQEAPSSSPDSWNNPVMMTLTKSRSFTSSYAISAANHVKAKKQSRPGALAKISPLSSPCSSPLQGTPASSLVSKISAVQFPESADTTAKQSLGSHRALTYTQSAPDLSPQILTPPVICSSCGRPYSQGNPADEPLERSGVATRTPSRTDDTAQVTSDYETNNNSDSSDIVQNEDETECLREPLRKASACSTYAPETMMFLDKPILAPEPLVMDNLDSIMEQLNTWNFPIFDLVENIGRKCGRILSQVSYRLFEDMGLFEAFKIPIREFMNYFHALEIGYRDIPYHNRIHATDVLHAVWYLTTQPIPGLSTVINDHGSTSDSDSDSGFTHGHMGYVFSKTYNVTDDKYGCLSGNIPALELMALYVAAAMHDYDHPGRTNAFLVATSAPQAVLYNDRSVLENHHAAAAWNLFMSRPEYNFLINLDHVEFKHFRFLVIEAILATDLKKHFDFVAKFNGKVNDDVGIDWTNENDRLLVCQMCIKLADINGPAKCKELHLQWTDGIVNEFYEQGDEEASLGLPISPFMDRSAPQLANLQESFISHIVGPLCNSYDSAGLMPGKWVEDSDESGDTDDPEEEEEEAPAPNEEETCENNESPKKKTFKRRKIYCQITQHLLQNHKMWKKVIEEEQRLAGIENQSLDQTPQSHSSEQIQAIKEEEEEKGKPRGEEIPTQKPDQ
Sequence of 3',5'-cyclic-AMP phosphodiesterase 4D (Homo sapiens) (Q08499 whole entry): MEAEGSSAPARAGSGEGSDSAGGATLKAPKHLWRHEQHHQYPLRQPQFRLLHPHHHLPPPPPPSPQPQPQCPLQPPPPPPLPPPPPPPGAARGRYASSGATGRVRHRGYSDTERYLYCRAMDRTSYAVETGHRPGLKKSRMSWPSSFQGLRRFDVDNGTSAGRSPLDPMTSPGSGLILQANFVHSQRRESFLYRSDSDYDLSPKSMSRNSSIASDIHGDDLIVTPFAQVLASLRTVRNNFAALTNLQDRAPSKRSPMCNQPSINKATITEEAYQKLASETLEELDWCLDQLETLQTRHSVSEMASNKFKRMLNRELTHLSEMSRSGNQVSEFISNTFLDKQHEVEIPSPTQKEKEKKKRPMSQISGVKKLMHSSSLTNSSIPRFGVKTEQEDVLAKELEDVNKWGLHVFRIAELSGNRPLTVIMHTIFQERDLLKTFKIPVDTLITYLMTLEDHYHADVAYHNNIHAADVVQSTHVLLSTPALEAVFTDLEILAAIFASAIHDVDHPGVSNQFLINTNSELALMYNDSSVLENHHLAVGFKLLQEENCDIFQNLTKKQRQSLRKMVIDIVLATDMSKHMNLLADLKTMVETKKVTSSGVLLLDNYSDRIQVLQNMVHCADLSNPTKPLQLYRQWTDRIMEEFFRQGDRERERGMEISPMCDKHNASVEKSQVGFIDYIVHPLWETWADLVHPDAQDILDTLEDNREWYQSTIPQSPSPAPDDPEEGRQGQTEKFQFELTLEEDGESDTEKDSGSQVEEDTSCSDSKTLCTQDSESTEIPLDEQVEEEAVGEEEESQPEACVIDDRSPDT

| Compound | inhibition [1] [%] | IC50 [2] [nM] | other results |
| --- | --- | --- | --- |
| CN(C(=O)c1ccc(OCc2ccc3ccccc3n2)cc1)c1ccc2nccn2c1 | 105 | 130 | – |
| CN(C(=O)c1cc(-c2ccccc2)n[nH]1)c1ccc(OCc2ccc3ccccc3n2)cc1 | 102 | 24 | – |
| O=C(Nc1ccc(OCc2ccc3ccccc3n2)cc1)c1ccncc1 | 33 | – | – |
| CN(C(=O)c1cnc(-c2ccncc2)s1)c1ccc(OCc2ccc3ccccc3n2)cc1 | 101 | 88 | – |
| CN(C(=O)c1ccc2ncsc2c1)c1ccc(OCc2ccc3ccccc3n2)cc1 | 101 | 31 | inhibition [3]: 1%; inhibition [4]: 5%; CLH (Liver microsomes): 2.2 L/min |
| Cc1cccc(COc2ccc(N(C)C(=O)c3ccc4ncsc4c3)cc2)n1 | 90 | 1600 | – |
| CN(C(=O)c1ccc(OCc2ccc3ccccc3n2)cc1)c1ccc2ncoc2c1 | 105 | 93 | – |
| CN(C(=O)c1ccc(OCc2ccc3ccccc3n2)cc1)c1ccccc1 | 94 | 950 | – |
| CN(C(=O)c1cc(-c2ccncc2)n[nH]1)c1ccc(OCc2ccc3ccccc3n2)cc1 | 99 | 110 | – |
| CN(C(=O)c1ccc(OCc2ccc3ccccc3n2)cc1)c1ccc2ncnn2c1 | 101 | 240 | – |
| CN(C(=O)c1ccccn1)c1ccc(OCc2ccc3ccccc3n2)cc1 | 27 | – | – |
| CN(C(=O)c1cc(-c2ccccn2)n[nH]1)c1ccc(OCc2ccc3ccccc3n2)cc1 | 100 | 12 | inhibition [5]: 0%; inhibition [3]: 12%; inhibition [4]: 0%; inhibition [6]: 0%; CLH (Liver microsomes): 2.4 L/min |
| CN(C(=O)c1ccc(-n2ccnc2)cc1)c1ccc(OCc2ccc3ccccc3n2)cc1 | 98 | 460 | – |
| CN(C(=O)c1ccc2ncsc2c1)c1ccc(OCc2nc3ccccc3o2)cc1 | 98 | 920 | – |
| CCCCN(C(=O)c1ccncc1)c1ccc(OCc2ccc3ccccc3n2)cc1 | – | 660 | – |
| Cn1cc(-c2ccncc2)c(-c2ccc(OCc3ccc4ccccc4n3)cc2)n1 [MARDEPODECT] | – | – | CLH (Liver microsomes): 2.2 L/min; ED50 (Rattus norvegicus): 1.8 mg/kg |
| CN(C(=O)c1ccc(OCc2ccc3ccccc3n2)cc1)c1ccncc1 | 101 | 140 | – |
| CCN(C(=O)c1ccncc1)c1ccc(OCc2ccc3ccccc3n2)cc1 | – | 750 | – |
| CN(C(=O)c1cnc(-c2cccnc2)s1)c1ccc(OCc2ccc3ccccc3n2)cc1 | 103 | 87 | – |
| CN(C(=O)c1cc(-c2cccnc2)n[nH]1)c1ccc(OCc2ccc3ccccc3n2)cc1 | 101 | 13 | – |
| CN(C(=O)c1cccnc1)c1ccc(OCc2ccc3ccccc3n2)cc1 | 62 | – | – |
| CN(C(=O)c1ccc2ncsc2c1)c1ccc(OCc2nc3ccccc3n2C)cc1 | 104 | 61 | – |
| CN(C(=O)c1ccncc1)c1ccc(OCc2cn3ccccc3n2)cc1 | 88 | 1600 | – |
| CN(C(=O)c1ccc(OCc2ccc3ccccc3n2)cc1)c1ccc2ncsc2c1 | 105 | 16 | inhibition [5]: 13%; inhibition [3]: 15%; inhibition [4]: 7%; inhibition [6]: 12%; CLH (Liver microsomes): 6.1 L/min |
| CN(C(=O)c1ccc(OCc2ccc3ccccc3n2)cc1)c1ccn2ncnc2c1 | 100 | 400 | – |
| CN(C(=O)c1ccncc1)c1ccc(OCc2ccc3ccccc3n2)cc1 | 80 | 250 | inhibition [5]: 4%; inhibition [3]: 14%; inhibition [4]: 22%; inhibition [6]: 16%; Kp [7]: 0.6; Ratio IC50 (Homo sapiens): > 50; CLH (Liver microsomes): 1.1 L/min; IC50 [8]: > 50000 nM; ED50 (Rattus norvegicus): 60 mg/kg |
| CN(C(=O)c1ccccc1)c1ccc(OCc2ccc3ccccc3n2)cc1 | 96 | 660 | – |
